In US20070128217A1 (priority 2003, published 2007):

Tests used:
[1] = test system: control sera (pooled serum of ten healthy LUMC hospital workers; commercial negative donor pooled serum from the Dutch bloodbank); assay type: binding, human; set-up: Binding of Control serum LUMC to linear peptides / Binding of Control serum Blood-bank to linear peptides / Binding of Control serum LUMC to looped peptides / Binding of Control Serum Blood-Bank to Looped peptides / Binding of Control serum LUMC to linear peptides of the protein M of SARS-CoV Urbani / Binding of Control serum Blood-bank to linear peptides of the protein M of SARS-CoV Urbani / Binding of Control serum LUMC to looped peptides of the protein M of SARS-CoV Urbani / Binding of Control Serum Blood-Bank to Looped peptides of the protein M of SARS-CoV Urbani: unit not given here
[2] = test system: rabbit serum obtained by immunizing a rabbit with the SARS-CoV strain Frankfurt 1; assay type: binding; set-up: Binding of a rabbit serum to linear peptides / Binding of a rabbit serum to looped peptides / Rabbit serum linear peptides / Rabbit serum looped peptides / Binding of a rabbit serum to linear peptides of protein N of SARS-CoV Urbani (Rabbit serum linear peptides) / Binding of a rabbit serum to looped/cyclic peptides of protein N of SARS-CoV Urbani (Rabbit serum looped peptides): unit not given here

| Sequence | Binding of Control Serum Blood-Bank to Looped peptides [1] | Binding of Control serum Blood-bank to linear peptides [1] | Binding of Control serum LUMC to linear peptides [1] | Binding of Control serum LUMC to looped peptides [1] | Binding of a rabbit serum to linear peptides [2] | Binding of a rabbit serum to looped peptides [2] | Rabbit serum linear peptides [2] | Rabbit serum looped peptides [2] | Binding of Control Serum Blood-Bank to Looped peptides of the protein X3 of SARS-CoV Urbani [1] | Binding of Control serum Blood-bank to linear peptides of the protein X3 of SARS-CoV Urbani [1] | Binding of Control serum LUMC to linear peptides of the protein X3 of SARS-CoV Urbani [1] | Binding of Control serum LUMC to looped peptides of the protein X3 of SARS-CoV Urbani [1] | Recognition of the peptide by the rabbit serum [2] | Binding of Control Serum Blood-Bank to Looped peptides of the protein M of SARS-CoV Urbani [1] | Binding of Control serum Blood-bank to linear peptides of the protein M of SARS-CoV Urbani [1] | Binding of Control serum LUMC to linear peptides of the protein M of SARS-CoV Urbani [1] | Binding of Control serum LUMC to looped peptides of the protein M of SARS-CoV Urbani [1] |
| --- | --- | --- | --- | --- | --- | --- | --- | --- | --- | --- | --- | --- | --- | --- | --- | --- | --- |
| DPIYDEPTTTTSVPL | 0.8 | 0.5 | 0.5 | 0.7 | 0.1 | 0.5 | – | – | – | – | – | – | – | – | – | – | – |
| DRHSGVKDYVVVHGY | 0.6 | 0.7 | 0.7 | 0.4 | 0.1 | 0.5 | – | – | – | – | – | – | – | – | – | – | – |
| DYCIPYNSVTDTIVV | 0.7 | 0.7 | 0.6 | 0.9 | 0.1 | 0.5 | – | – | – | – | – | – | – | – | – | – | – |
| ECVRGTTVLLKEPCP | 0.9 | 0.9 | 0.7 | 0.8 | – | – | 0.6 | 0.4 | – | – | – | – | – | – | – | – | – |
| EGHQTAAFRDVLVVL | 0.9 | 0.7 | 0.9 | 1.6 | – | – | 0.3 | 0.6 | – | – | – | – | – | – | – | – | – |
| EILIIIMRTFRIAIW | – | – | – | – | – | – | 0.5 | 0.3 | 0.6 | 0.8 | 0.5 | 0.6 | – | – | – | – | – |
| ELYHYQECVRGTTVL | 0.7 | 0.7 | 0.6 | 0.7 | – | – | 0.7 | 0.7 | – | – | – | – | – | – | – | – | – |
| FFIFNKLVKDPPNVQ | 0.5 | 0.6 | 0.7 | 0.6 | 0.1 | 0.5 | – | – | – | – | – | – | – | – | – | – | – |
| FIFNKLVKDPPNVQI | 0.8 | 0.8 | 0.8 | 0.7 | 0.1 | 0.7 | – | – | – | – | – | – | – | – | – | – | – |
| FKPLTKKNYSELDDE | – | – | – | – | – | – | 0.5 | 0.5 | 0.8 | 0.8 | 0.8 | 0.8 | – | – | – | – | – |
| FQHQNSKKTTKLVVI | 0.4 | 0.5 | 0.7 | 0.5 | – | – | – | – | – | – | – | – | recognized | – | – | – | – |
| FTLGSITAQPVKIDN | 1.6 | 0.5 | 0.6 | 1.2 | 0.7 | 0.8 | – | – | – | – | – | – | – | – | – | – | – |
| FVCWHTHNYDYCIPY | 0.5 | 0.6 | 0.7 | 0.6 | 0.1 | 0.7 | – | – | – | – | – | – | – | – | – | – | – |
| GASQRVGTDSGFAAY | – | – | – | – | – | – | 0.1 | 0.1 | – | – | – | – | – | 0.7 | 0.9 | 0.9 | 0.7 |
| GGYSEDRHSGVKDYV | 0.4 | 0.6 | 0.4 | 0.5 | 0.1 | 0.2 | – | – | – | – | – | – | – | – | – | – | – |
| GHQTAAFRDVLVVLN | 0.6 | 0.5 | 0.8 | 0.6 | – | – | 0.1 | 0.5 | – | – | – | – | – | – | – | – | – |
| GIAIAMACIVGLMWL | – | – | – | – | – | – | 0.3 | 0.1 | – | – | – | – | – | 0.7 | 0.8 | 0.5 | 0.8 |
| GISTPKLKEDYQIGG | 0.4 | 0.5 | 0.4 | 0.4 | 0.1 | 0.3 | – | – | – | – | – | – | – | – | – | – | – |
| GNYKLNTDHAGSNDN | – | – | – | – | – | – | 0.0 | 0.2 | – | – | – | – | – | 0.6 | 0.6 | 0.7 | 0.7 |
| GSITAQPVKIDNASP | 0.6 | 0.6 | 0.6 | 0.5 | 0.2 | 0.4 | – | – | – | – | – | – | – | – | – | – | – |
| GSSGVANPAMDPIYD | 0.4 | 0.6 | 0.7 | 0.4 | 0.1 | 0.5 | – | – | – | – | – | – | – | – | – | – | – |
| GTQVLKTMSLYMAIS | 0.7 | 0.6 | 0.6 | 0.6 | 0.2 | 0.4 | – | – | – | – | – | – | – | – | – | – | – |
| GTTVLLKEPCPSGTY | 0.7 | 0.7 | 0.7 | 0.8 | – | – | 0.4 | 0.4 | – | – | – | – | – | – | – | – | – |
| GTYEGNSPFHPLADN | 0.9 | 0.7 | 0.8 | 0.7 | – | – | 0.6 | 0.5 | – | – | – | – | – | – | – | – | – |
